From ChEMBL document CHEMBL1123917, “Antiulcer agents. 3. Structure-activity-toxicity relationships of substituted imidazo[1,2-a]pyridines and a related imidazo[1,2-a]pyrazine” (1987)
Calls of active or inactive are those of the source. The calls are words filed in the database; no cut-off is given here.

Key:
Canis familiaris [1] = test: Inhibition of gastric acid secretion stimulated by histamine in dog was determined by peroral administration; IA means inactive; type: functional, organism-based; conditions: Canis lupus familiaris; Stomach
Rattus norvegicus [2] = test: Cytoprotective activity against ethyle alcohol induced ulcers was determined in rats by peroral administration of the compound; type: functional; conditions: po
Mus musculus [3] = organism: Mus musculus; test: Organ weight ratio was determined for the compound :control
Mus musculus [4] = test: Organ weight (stomach) was determined after administration of the compound
Mus musculus [5] = organism: Mus musculus; test: Histopathology of the stomach was determined; N means normal variation in the presence of the compound.
Mus musculus [6] = organism: Mus musculus; test: Organ weight ratio was determined for the compound with respect to (8-Benzyloxy-2-methyl-imidazo[1,2-a]pyridin-3-yl) compound
Canis familiaris [7] = test: Inhibition of gastric acid secretion stimulated by histamine in dog was determined by peroral administration; value ranges from 0.6-3.9; type: functional; conditions: Canis lupus familiaris, Stomach, po
Canis familiaris [8] = test: Percent inhibition of Histamine -stimulated gastric acid secretion at the oral dosage of 4 mg/kg.; type: functional; conditions: Canis lupus familiaris, Stomach
Canis familiaris [9] = test: Inhibition of gastric acid secretion stimulated by histamine in dog was determined by peroral administration of the compound; type: functional; conditions: Canis lupus familiaris, Stomach, po
Canis familiaris [10] = test: Percent inhibition of Histamine -stimulated gastric acid secretion at the oral dosage of 8 mg/kg.; type: functional; conditions: Canis lupus familiaris, Stomach
Mus musculus [11] = organism: Mus musculus; test: Histopathology of the stomach was determined as HGM (Hyperplasia of grandular mucosa)in the presence of the compound.
Canis familiaris [12] = test: Inhibition of gastric acid secretion stimulated by histamine in dog was determined by peroral administration; value ranges from 3.2-50.6; type: functional; conditions: Canis lupus familiaris, Stomach, po
Canis familiaris [13] = test: Percent inhibition of Histamine stimulated gastric acid secretion at oral dosage of 4 mg/kg; type: functional; conditions: Canis lupus familiaris, Stomach
Canis familiaris [14] = test: Percent inhibition of Histamine stimulated gastric acid secretion at oral dosage of 8 mg/kg; type: functional; conditions: Canis lupus familiaris, Stomach
Rattus norvegicus [15] = test: Cytoprotective activity against ethyle alcohol induced ulcers was determined in rats by peroral administration; IA means inactive; type: functional, organism-based
Canis familiaris [16] = test: Inhibition of gastric acid secretion stimulated by histamine in dog was determined by peroral administration; IA means inactive oral dose of 8 mg/kg; type: functional, organism-based; design: dose 8 mg/kg; conditions: Canis lupus familiaris; Stomach
Canis familiaris [17] = test: Inhibition of gastric acid secretion stimulated by histamine in dog was determined by peroral administration; the regression was not significant; type: functional; conditions: Canis lupus familiaris, Stomach, po
Canis familiaris [18] = test: Inhibition of gastric acid secretion stimulated by histamine in dog was determined by peroral administration confidence limits (p=0.05.); value ranges from 2.1-14.0; type: functional; conditions: Canis lupus familiaris, Stomach, po
Mus musculus [19] = organism: Mus musculus; test: Histopathology of the stomach was determined as HGM (Hyperplasia of grandular mucosa) in the presence of the compound.
Canis familiaris [20] = test: Inhibition of gastric acid secretion stimulated by histamine in dog was determined by peroral administration; value ranges from 2.3-59.2; type: functional; conditions: Canis lupus familiaris, Stomach, po

Cc1cn2cccc(OCc3ccccc3)c2n1
ED50 (Canis familiaris [1]): inactive
ED50 (Rattus norvegicus [2]): 4 mg/kg
Organ weight ratio (Mus musculus [3]): 1
Organ weight (Mus musculus [4]): 0.84 g
Histopathology (Mus musculus [5]): Within normal variation
Organ weight ratio (Mus musculus [6]): 0.7

Cc1nc2c(OCc3ccccc3)nccn2c1N
ED50 (Canis familiaris [7]): 1.4 mg/kg
ED50 (Rattus norvegicus [2]): 5 mg/kg
Organ weight ratio (Mus musculus [3]): 1.1
Organ weight (Mus musculus [4]): 0.86 g
Histopathology (Mus musculus [5]): Within normal variation
Organ weight ratio (Mus musculus [6]): 0.8

Cc1nc2c(CCc3ccccc3)cccn2c1CC#N
inhibition in vivo at 4 mg/kg (Canis familiaris [8]): 3%
ED50 (Canis familiaris [9]): > 4.4 mg/kg
inhibition in vivo at 8 mg/kg (Canis familiaris [10]): 83%
ED50 (Rattus norvegicus [2]): 7 mg/kg
Organ weight ratio (Mus musculus [3]): 1.2
Organ weight (Mus musculus [4]): 0.99 g
Histopathology (Mus musculus [11]): Hyperplasia of glandular mucosa
Organ weight ratio (Mus musculus [6]): 0.9

Cc1ccn2c(CC#N)c(C)nc2c1OCc1ccccc1
ED50 (Rattus norvegicus [2]): 13 mg/kg
ED50 (Canis familiaris [12]): 7.1 mg/kg
Organ weight ratio (Mus musculus [3]): 1.1
Organ weight (Mus musculus [4]): 0.9 g
Histopathology (Mus musculus [5]): Within normal variation
Organ weight ratio (Mus musculus [6]): 0.8

Cc1nc2ccc(CCc3ccccc3)cn2c1N
ED50 (Canis familiaris [1]): inactive
ED50 (Rattus norvegicus [2]): 5.7 mg/kg
Organ weight ratio (Mus musculus [3]): 1
Organ weight (Mus musculus [4]): 0.81 g
Histopathology (Mus musculus [5]): Within normal variation
Organ weight ratio (Mus musculus [6]): 0.7

Cc1cn2c(OCc3ccccc3)cccc2n1
ED50 (Canis familiaris [1]): inactive
ED50 (Rattus norvegicus [2]): 1 mg/kg
Organ weight ratio (Mus musculus [3]): 0.9
Organ weight (Mus musculus [4]): 0.76 g
Histopathology (Mus musculus [5]): Within normal variation
Organ weight ratio (Mus musculus [6]): 0.7

Cc1c(CC#N)nc2c(OCc3ccccc3)cccn12
inhibition in vivo at 4 mg/kg (Canis familiaris [13]): 19%
inhibition in vivo at 8 mg/kg (Canis familiaris [14]): 91%
ED50 (Canis familiaris [9]): > 4.4 mg/kg
ED50 (Rattus norvegicus [15]): inactive
Organ weight ratio (Mus musculus [3]): 1.2
Organ weight (Mus musculus [4]): 0.98 g
Histopathology (Mus musculus [11]): Hyperplasia of glandular mucosa
Organ weight ratio (Mus musculus [6]): 0.9

Cc1nc2ccc(CCc3ccccc3)cn2c1CC#N
ED50 (Canis familiaris [16]): inactive
ED50 (Rattus norvegicus [2]): 2.7 mg/kg
Organ weight ratio (Mus musculus [3]): 1
Organ weight (Mus musculus [4]): 0.81 g
Histopathology (Mus musculus [5]): Within normal variation
Organ weight ratio (Mus musculus [6]): 0.7

Cc1nc2c(OCc3ccccc3)cccn2c1N
ED50 (Canis familiaris [17]): 2 mg/kg
ED50 (Rattus norvegicus [2]): 6 mg/kg
Organ weight ratio (Mus musculus [3]): 1.2
Organ weight (Mus musculus [4]): 1.09 g
Histopathology (Mus musculus [11]): Hyperplasia of glandular mucosa
Organ weight ratio (Mus musculus [6]): 1

Cc1nc2c(OCc3ccccc3)cccn2c1CC#N
ED50 (Canis familiaris [18]): 4.4 mg/kg
ED50 (Rattus norvegicus [2]): 3 mg/kg
Organ weight ratio (Mus musculus [3]): 1.4
Organ weight (Mus musculus [4]): 1.13 g
Histopathology (Mus musculus [11]): Hyperplasia of glandular mucosa
Organ weight ratio (Mus musculus [6]): 1

Cc1nc2c(O)cccn2c1CC#N
ED50 (Canis familiaris [1]): inactive
ED50 (Rattus norvegicus [15]): inactive
Organ weight ratio (Mus musculus [3]): 1
Organ weight (Mus musculus [4]): 0.8 g
Histopathology (Mus musculus [5]): Within normal variation
Organ weight ratio (Mus musculus [6]): 0.7

Cc1nc2c(OCc3ccsc3)cccn2c1CC#N
ED50 (Canis familiaris [9]): 2.7 mg/kg
ED50 (Rattus norvegicus [2]): 2 mg/kg
Organ weight ratio (Mus musculus [3]): 1.5
Organ weight (Mus musculus [4]): 1.12 g
Histopathology (Mus musculus [19]): Hyperplasia of glandular mucosa
Organ weight ratio (Mus musculus [6]): 1

Cc1nc2c(NCc3ccccc3)cccn2c1CC#N
ED50 (Canis familiaris [9]): 6.7 mg/kg
ED50 (Rattus norvegicus [2]): 2 mg/kg
Organ weight ratio (Mus musculus [3]): 1.2
Organ weight (Mus musculus [4]): 0.9 g
Histopathology (Mus musculus [11]): Hyperplasia of glandular mucosa
Organ weight ratio (Mus musculus [6]): 0.8

Cc1nc2c(CCc3ccccc3)cccn2c1N
ED50 (Canis familiaris [20]): 6.8 mg/kg
ED50 (Rattus norvegicus [2]): 9 mg/kg
Organ weight ratio (Mus musculus [3]): 1.1
Organ weight (Mus musculus [4]): 0.88 g
Histopathology (Mus musculus [5]): Within normal variation
Organ weight ratio (Mus musculus [6]): 0.8
